In patent US8367724B2, “Ester compound and use thereof” (Sumitomo Chemical Company, Limited, priority 2007, dated 2013):

Columns and labels:
[1] = system: common mosquito (Culex pipens pallens) females; test: Mortality of common mosquito females, oil solution sprayed in a chamber (Test Example 2); type: in vivo; settings: 0.7 ml of 0.00625% oil solution sprayed in 70 cm cubic chamber; ten females; recovered after ten minutes; dead counted after 24 hours; 2 repetition
Procedure: Each 0.00625 parts of the present compounds (1) to (3) produced in the above production Examples was dissolved in 10 parts of dichloromethane, and the solution was mixed with 89.99375 parts of deodorized kerosene to prepare a 0.00625% oil solution.
Ten common mosquito (Culex pipens pallens) females were released in a cubic chamber having each side of 70 cm, and 0.7 ml of the 0.00625% oil solution of the present compound prepared above was sprayed into the chamber through a small window on a side of the chamber using a spraying gun at a pressure of 8.8×10^4 Pa. After ten minutes, common mosquito females were recovered in a clean cup (bottom diameter 8.2 cm) with a cotton wool containing a 0.5% aqueous sugar, and allowed to stand until the next day. After 24 hours, the number of dead mosquitoes was counted, and a mortality was calculated (2 repetition).
In addition, the same as above test was performed using, in place of present compounds (1) to (3), 4-methoxymethyl-2,3,5,6-tetrafluorobenzyl (1R)-trans-3-(2-cyano-1-propenyl)-2,2-dimethylcyclopropanecarboxylate (ratio of isomers regarding double bond: Z/E=about 2/1; compound described in U.S. Pat. No. 6,908,945B2; hereinafter refereed to as Comparative Compound (4)) as a control.

[2] = system: Adult houseflies; test: Knock-down of adult houseflies, oil solution sprayed in a chamber (Test Example 1); type: in vivo, housefly; settings: 0.7 ml of 0.025% oil solution sprayed in 70 cm cubic chamber; 10 adult houseflies; counted two minutes after spraying; 2 repetitions
Procedure: Each 0.025 part of the present compounds (1) to (3) produced in the above Production Examples was dissolved in 10 parts of dichloromethane, and the solution was mixed with 89.975 parts of deodorized kerosene to prepare a 0.025% oil solution.
Adult houseflies (5 males and 5 females, total 10) were released in a cubic chamber having each side of 70 cm, and 0.7 ml of the 0.025% oil solution of the present compound prepared above was sprayed into the chamber through a small window on a side of the chamber using a spraying gun at a pressure of 8.8×10^4 Pa. Two minutes after spraying, the number of knocked-down houseflies was counted (2 repetitions).
In addition, the same as above test was performed by using, in place of the present compounds (1) to (3), 4-methyl-2,3,5,6-tetrafluorobenzyl (1R)-trans-3-(2-methyl-1-propenyl)-2,2-dimethylcyclopropanecarboxylate represented by the formula: […]

| SMILES | Mortality (%) [1] [%] | Number of knock-down houseflies [2] |
| --- | --- | --- |
| CC(C#N)=C[C@@H]1[C@@H](C(=O)OCc2c(F)c(F)c(C)c(F)c2F)C1(C)C (racemic) [Present compound (1), 4-methyl-2,3,5,6-tetrafluorobenzyl (1R)-trans-3-(2-cyano-1-propenyl)-2,2-dimethylcyclopropanecarboxylate] | 95 | 10 |
| COc1c(F)c(F)c(COC(=O)[C@@H]2[C@@H](C=C(C)C#N)C2(C)C)c(F)c1F (racemic) [Present compound (2), 4-methoxy-2,3,5,6-tetrafluorobenzyl (1R) trans-3-(2-cyano-1-propenyl)-2,2-dimethylcyclopropanecarboxylate] | 100 | 10 |
| C=CCc1c(F)c(F)c(COC(=O)[C@@H]2[C@@H](C=C(C)C#N)C2(C)C)c(F)c1F (racemic) [Present compound (3), 4-allyl-2,3,5,6-tetrafluorobenzyl (1R)-trans-3-(2-cyano-1-propenyl)-2,2-dimethylcyclopropanecarboxylate] | 70 | 9 |
| CC(C)=C[C@@H]1[C@@H](C(=O)OCc2c(F)c(F)c(C)c(F)c2F)C1(C)C [Comparative compound (1), 4-methyl-2,3,5,6-tetrafluorobenzyl (1R)-trans-3-(2-methyl-1-propenyl)-2,2-dimethylcyclopropanecarboxylate, reference compound] | – | 0 |
| COc1c(F)c(F)c(COC(=O)[C@@H]2[C@@H](C=C(C)C)C2(C)C)c(F)c1F [Comparative compound (2), 4-methoxy-2,3,5,6-tetrafluorobenzyl (1R)-trans-3-(2-methyl-1-propenyl)-2,2-dimethylcyclopropanecarboxylate, reference compound] | – | 0 |
| C=CCc1c(F)c(F)c(COC(=O)[C@@H]2[C@@H](C=C(C)C)C2(C)C)c(F)c1F [Comparative compound (3), 4-allyl-2,3,5,6-tetrafluorobenzyl (1R)-trans-3-(2-methyl-1-propenyl)-2,2-dimethylcyclopropanecarboxylate, reference compound] | – | 0 |
| COCc1c(F)c(F)c(COC(=O)[C@@H]2[C@@H](C=C(C)C#N)C2(C)C)c(F)c1F [Comparative compound (4), 4-methoxymethyl-2,3,5,6-tetrafluorobenzyl (1R)-trans-3-(2-cyano-1-propenyl)-2,2-dimethylcyclopropanecarboxylate, reference compound] | 16 | – |
